According to patent US12037350B2, “Compositions and methods for the prevention and/or treatment of mitochondrial disease, including Friedreich's ataxia” (Stealth BioTherapeutics Inc., priority 2020, dated 2024):
Entries after “also recorded” stand apart in the source; their conditions may differ.

Assays:
HepG2 cells = experiment: Rotenone Oxygraph Assay (high-resolution respirometry of intact HepG2 cells); assay type: cell-based, human; details: for activation at 10 µM: Homo sapiens
Description: Example 15: Rotenone Oxygraph Assay (High-Resolution Respirometry of Intact HepG2 Cells)
The Oxygraph-2k (O2k, OROBOROS INSTRUMENTS, Austria) was used for measurements of respiration of intact cells. The respirometry was performed in Dulbecco's Modified Eagle Medium (DMEM) high glucose without supplements. All experiments were performed at 37° C.
HepG2 cells (ATCC collection code HB-8065™) were cultured in 10 cm^2 culture dishes in DMEM high glucose medium supplemented with 10% fetal bovine serum (FBS) and 100 units/mL penicillin and 100 μg/mL streptomycin until approximately 90% confluence was reached. Immediately prior to performing the respirometric assay, the cells were washed with media without FBS, trypsinized and resuspended in DMEM high glucose without FBS.
The final concentration of intact cells in the O2k-chamber was 0.5-10^6/mL. After stabilization of respiration, the Complex I inhibitor, rotenone, at 1 μM final concentration was added to inhibit electron flux via Complex I. Then, compound to be tested was added at 10 μM final concentration, and the change in respiration rate of intact cells was monitored. […]

[1] = tested on: GM03665 cells (fibroblasts from a subject with Friedreich's ataxia); experiment: RSL-3 Toxicity Assay (RSL-3 Assay); assay type: cell-based, human; details: for EC50: Homo sapiens, Fibroblast
Source text: Example 14: RSL-3 Toxicity Assay (RSL-3 Assay)
This assay has been adapted from: Hinman, A., Holst, C. R., Latham, J. C., Bruegger, J. J., Ulas, G., McCusker, K. P., Amagata, A., Davis, D., Hoff, K. G., Kahn-Kirby, A. H., Kim, V., Kosaka, Y., Lee, E., Malone, S. A., Mei, J. J., Richards, S. J., Rivera, V., Miller, G., Trimmer, J. K., Shrader, W. D., “Vitamin E hydroquinone is an endogenous regulator of ferroptosis via redox control of 15-lipoxygenase”, (2018) PLoS ONE 13(8): e0201369.
In brief, GM03665 cells (Coriell Institute) were seeded in 96-well plates (Sarstedt) in DMEM cell culture media containing 10% Fetal Bovine serum and 1% Penicillin-Streptomycin (Pen-Strep) antibiotic mix at the amount of 2×10^4/mL (100 μL or 2×10^3 cells per well). Cells were left to rest overnight at 37° C. in a humidified atmosphere with 5% CO2 to allow attachment of the cells to the culture plate. Test compounds were prepared as DMSO stocks (10 mM) and were serially diluted in cell culture media to obtain 2× working solutions. Cell media was discarded and replaced by 50 μL of test compound solutions or cell media with vehicle for control wells. Within 15 minutes, 2× working solution (4 μM) of 1S,3R-RSL-3 (CAS #1219810-16-8, Sigma-Aldrich) (diluted from 5 mM DMSO stock in cell culture media) was added. Final reaction volume was 100 μL and final DMSO concentration in reaction was kept below 0.2% (v/v) and equal in all wells. Final RSL-3 concentration was 2 μM and test compound final concentrations in reaction were up to 1000 nM. After 24 hours of incubation cell viability was assessed by MTT test. MTT (Sigma-Aldrich) solution 1 mg/mL in IX PBS (pH=7.4) was prepared 1 hour before the assay and filtered through Filtropur S 0.2 filters (Sarstedt). Cell media with test compounds was discarded and 100 μL of MTT solution was added to cells. The plates were incubated for 2 hours at +37° C. Thereafter, the MTT solution was removed and 100 μL of isopropanol was added to dissolve sediment. Absorption at 570 and 650 nm was measured using Hidex Sense microplate reader.
Compounds A and B and idebenone were not examined in this assay. The data presented in Table 1 indicates omaveloxolone was not active in this assay but that vatiquinone was active.
Discussion—Both BSO and RSL-3 are frequently utilized to induce the regulated cell death pathway known as ferroptosis. Ferroptosis is thought to require the joint activity of iron catalyzed oxidative stress and lipid peroxidation and has been described in cell and animal models of multiple neurodegenerative diseases, including Friedreich's Ataxia, Huntington Disease, Parkinson Disease and Alzheimer's Disease. […] Of note, the results for Compounds C-I and K were favorable with respect to inhibition of ferroptotic cell death when either BSO or RSL3 were used as initiating stimulus, differentiating these compounds from omaveloxolone and idebenone.

[2] = tested on: HepG2 human hepatocarcinoma cells; experiment: Rotenone ATP Assay (Complex I by-pass assay); assay type: cell-based
Description: Example 13: Rotenone ATP Assay (a Complex I by-Pass Assay)
This assay has been adapted from Haefeli R H, Erb M, Gemperli A C, Robay D, Courdier Fruh I, et al. (2011) NQO1-Dependent Redox Cycling of Idebenone: Effects on Cellular Redox Potential and Energy Levels. PLoS ONE 6(3): e17963. HepG2 human hepatocarcinoma cells are co-incubated with the electron transport chain complex I toxin rotenone +/− compounds of interest and the corresponding effect on ATP synthesis is measured with a bioluminescent substrate.
The stock solutions of the test articles (See Table 1, below for a list of the test articles examined using this assay) were prepared in dimethyl sulfoxide (DMSO at 10 mM). Working stock solutions were prepared on the day of the experiment in glucose free, serum free Dulbecco's modified Eagles medium (DMEM) supplemented with 50 micromolar rotenone.
In brief, HepG2 cells were plated at 25,000 cells per well in low glucose (1 gram/Liter) DMEM medium+10% fetal calf serum and incubated for 24 hours. The following day, the media was decanted and subsequently replaced with glucose free/serum free DMEM which has been supplemented with 50 micromolar rotenone and compound of interest. Serial dilutions of compound were prepared in 3× dilutions beginning at 25 micromolar. The cells were incubated for 60 minutes in a humidified tissue culture incubator. Following incubation, ATP levels were quantified via bioluminescent assay (Promega […] Glo Assay kit) and readings were captured on a standard microplate reader.
ATP bioluminescence is plotted versus the log of compound of interest and data are used to generate EC50 values. Curve fitting is performed using a sigmoidal dose response curve fit function (GraphPad Prism software).
EC50 values were derived from seven-point dose response curves performed on n=3 technical replicates per dose. Robustness of curve fit was assessed as a quality control measure, with an R squared value of at least 0.80 being required for a successful curve fit. Compounds of interest showing an increase in ATP bioluminescence relative to vehicle control were verified in an independent biological replicate of n=3 technical replicates per dose.
This assay is a direct measure of the ability of compounds of interest to restore ATP production under conditions of inhibition of Complex I of the mitochondrial electron transport chain. As the majority of ATP produced via the electron transport chain is thought to derive from Complex I activity, significant impairment in Complex I function has dire biological consequences. Of note, Complex I mutations are thought to drive pathophysiology in multiple mitochondrial diseases, including Leigh syndrome and Leber's Hereditary Optic Neuropathy (LHON), while diminished Complex I activity and the resultant attenuation of ATP production has been shown in neurodegenerative diseases, including Friedreich's Ataxia, Parkinson's Disease and Huntington's Disease. In brief, most compounds were tested in the Rotenone Oxygraph Assay instead of this assay but only Idebenone was active amongst Omaveloxolone, Idebenone and Vatiquinone.

[3] = intact HepG2 cells, rotenone 1 μM, compound 10 μM, increase in respiration rate
[4] = GM03665 cells, RSL-3 2 μM, 24 hours, MTT

`COC1=C(OC)C(=O)C(CCCCF)=C(C)C1=O` [Compound J, 2-(4-fluorobutyl)-5,6-dimethoxy-3-methylcyclohexa-2,5-diene-1,4-dione] was tested, and the “Complex I by-pass activity in Rotenone Oxygraph Assay (in words)” value (HepG2 cells) was “not that effective; also recorded: least active”, the activation at 10 µM (HepG2 cells; [3]) was 21.8% and the “protection against RSL-3 toxicity (in words)” value [1] was “essentially inactive”. The EC50 [1, 4] was > 1000 nM and the “Complex I by-pass activity in Rotenone ATP Assay (in words)” value [2] was “not that effective”.
In the case of `CC1(C)CC[C@]2(NC(=O)C(C)(F)F)CC[C@]3(C)[C@H](C(=O)C=C4[C@@]5(C)C=C(C#N)C(=O)C(C)(C)[C@@H]5CC[C@]43C)[C@@H]2C1` [Omaveloxolone, reference compound], the “Complex I by-pass activity in Rotenone Oxygraph Assay (in words)” value (HepG2 cells) is reported as “inactive”, the “Rotenone Oxygraph Assay % Increase” value (HepG2 cells; [3]) is reported as “Inactive” and the “protection against RSL-3 toxicity (in words)” value [1] is reported as “not active”. For the same compound, the “RSL-3 Assay EC50” value [1, 4] was “Inactive”, the “Complex I by-pass activity in Rotenone ATP Assay (in words)” value [2] was “inactive” and the “ATP Rotenone Assay EC50” value ([2]; HepG2, 50 micromolar rotenone, 60 minutes, ATP bioluminescence) was “Inactive”.
`COC1=C(OC)C(=O)C(CCCCCCCCCC(F)(F)F)=C(C)C1=O` [Compound C, 2,3-dimethoxy-5-methyl-6-(10,10,10-trifluorodecyl)cyclohexa-2,5-diene-1,4-dione] was tested, and the “Complex I by-pass activity in Rotenone Oxygraph Assay (in words)” value (HepG2 cells) was “effective in rescuing cells”, the activation at 10 µM (HepG2 cells; [3]) was 63.9% and the EC50 [1, 4] was 110 nM. For the same compound, the “Complex I by-pass activity in Rotenone ATP Assay (in words)” value [2] was “effective in rescuing cells; also recorded: comparable to that of Idebenone” and the EC50 ([2]; Homo sapiens, 1 h, HepG2, 50 micromolar rotenone, 60 minutes, ATP bioluminescence) was 1440 nM.
